In ChEMBL document CHEMBL1201862, “PubChem BioAssay data set” (2004):
Calls of active or inactive are those of the source.

Tests used:
[1] = target: T1, Nucleotide-binding oligomerization domain-containing protein 2 (Homo sapiens, UniProt Q9HC29); test: inhibition of NOD2-driven NF-kB reporter – cell-based, luminescence, uHTS, HEK293 (AID 1566); type: functional
[2] = target: Nucleotide-binding oligomerization domain-containing protein 1 (Homo sapiens, UniProt Q9Y239); test: blockers of NOD1 pathway activity – revised, SAR follow-up (AID 2333); type: functional
[3] = tested on: HEK293; test: NOD2 signaling inhibitors in MDP-stimulated cells, cell-based, uHTS, luminescence (AID 2001); type: functional; details: Homo sapiens
[4] = tested on: HEK293; test: cells; type: functional, cell-based; details: Homo sapiens
[5] = tested on: HEK293; test: inhibition of NOD1-driven NF-kB reporter – cell-based, luminescence, uHTS, primary screen (AID 1578); type: functional; details: Homo sapiens
[6] = target: Tumor necrosis factor (Homo sapiens, UniProt P01375); test: analog potency on TNFa NF-kB signaling – cell-based, revised, SAR follow-up (AID 2337); type: functional
[7] = target: T1, Nucleotide-binding oligomerization domain-containing protein 2; test: PubChem AID 2334; type: functional
[8] = tested on: HEK293; test: cells; type: functional, cell-based; details: Homo sapiens; remark: listed apart in the source
[9] = tested on: HEK293; test: cells; details: Homo sapiens
[10] = tested on: HEK293; test: cells; type: functional, cell-based; details: Homo sapiens; remark: listed apart in the source
[11] = target: T2, High affinity choline transporter 1 (Homo sapiens, UniProt Q9GZV3); test: human choline transporter blockers, potency – cell-based, 5-point CRC, membrane potential dye, dose response (AID 504840); type: functional
T2 sequence (Q9GZV3 whole entry): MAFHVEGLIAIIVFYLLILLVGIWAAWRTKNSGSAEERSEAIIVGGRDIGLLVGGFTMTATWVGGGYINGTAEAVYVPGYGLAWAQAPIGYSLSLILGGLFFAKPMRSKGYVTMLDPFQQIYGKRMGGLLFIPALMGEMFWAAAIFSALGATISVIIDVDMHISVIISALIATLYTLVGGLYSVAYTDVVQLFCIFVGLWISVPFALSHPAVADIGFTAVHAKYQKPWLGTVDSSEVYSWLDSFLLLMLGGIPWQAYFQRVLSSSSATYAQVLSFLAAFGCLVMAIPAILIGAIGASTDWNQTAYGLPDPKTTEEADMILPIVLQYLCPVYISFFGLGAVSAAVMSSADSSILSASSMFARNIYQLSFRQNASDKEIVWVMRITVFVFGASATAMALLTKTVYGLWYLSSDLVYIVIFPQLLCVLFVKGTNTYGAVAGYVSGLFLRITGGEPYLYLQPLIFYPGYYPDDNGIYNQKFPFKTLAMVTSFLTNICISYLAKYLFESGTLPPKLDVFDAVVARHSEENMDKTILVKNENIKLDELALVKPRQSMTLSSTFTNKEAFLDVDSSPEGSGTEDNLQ

[12] = target: Troponin, cardiac muscle (Homo sapiens, UniProt P19429+P45379+P63316); test: Fluorescence-based biochemical high throughput dose response assay for activators of the calcium sensitivity of cardiac Regulated Thin Filaments (RTF). [Related pubchem assays (depositor defined):AID493008, AID493018, AID504382, AID504383]; type: protein-complex assay
[13] = target: T3, Short transient receptor potential channel 4 (Mus musculus, UniProt Q9QUQ5); test: calcium entry via TRPC4 opening agents – cell-based, HEK293 TRPC4/mu-opioid, Fluo-4 calcium, dose response (AID 434937); type: functional
T3 sequence (Q9QUQ5 whole entry): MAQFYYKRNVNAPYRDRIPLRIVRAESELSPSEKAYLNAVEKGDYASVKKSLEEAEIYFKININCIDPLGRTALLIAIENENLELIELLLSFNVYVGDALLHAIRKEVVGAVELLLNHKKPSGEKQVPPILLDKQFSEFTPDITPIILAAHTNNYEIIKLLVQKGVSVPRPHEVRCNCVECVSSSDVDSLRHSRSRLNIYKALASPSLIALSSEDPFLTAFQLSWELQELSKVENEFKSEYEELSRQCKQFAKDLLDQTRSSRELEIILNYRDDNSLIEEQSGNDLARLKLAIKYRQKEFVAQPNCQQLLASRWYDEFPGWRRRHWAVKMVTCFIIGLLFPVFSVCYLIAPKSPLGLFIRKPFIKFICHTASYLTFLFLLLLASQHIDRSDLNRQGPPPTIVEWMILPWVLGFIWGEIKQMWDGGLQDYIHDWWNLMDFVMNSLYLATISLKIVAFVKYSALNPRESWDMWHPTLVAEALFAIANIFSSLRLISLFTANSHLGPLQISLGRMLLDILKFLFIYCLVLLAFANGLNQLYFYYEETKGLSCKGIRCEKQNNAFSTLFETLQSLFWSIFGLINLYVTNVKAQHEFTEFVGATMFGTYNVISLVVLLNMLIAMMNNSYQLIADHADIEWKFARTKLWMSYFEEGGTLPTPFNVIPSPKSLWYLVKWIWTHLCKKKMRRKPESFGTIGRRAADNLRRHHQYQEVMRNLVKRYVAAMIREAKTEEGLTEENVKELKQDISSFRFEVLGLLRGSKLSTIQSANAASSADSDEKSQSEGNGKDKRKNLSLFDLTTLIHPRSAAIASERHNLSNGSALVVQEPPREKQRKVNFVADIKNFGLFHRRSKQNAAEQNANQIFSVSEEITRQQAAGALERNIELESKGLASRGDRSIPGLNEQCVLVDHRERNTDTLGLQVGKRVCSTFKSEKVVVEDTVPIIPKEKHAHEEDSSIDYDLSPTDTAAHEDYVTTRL

[14] = target: T2, High affinity choline transporter 1; test: human choline transporter blockers, potency – cell-based, 10-point CRC, membrane potential dye, dose response (AID 588401); type: functional;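 note: membrane potential dye fluorescence of choline-evoked depolarization via CHT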
[15] = target: T4, Coagulation factor XII (Homo sapiens, UniProt P00748); test: Factor XIIa Dose Response Confirmation from Single Well HTS. [Related pubchem assays (depositor defined):AID701]; type: functional
T4 sequence (P00748 whole entry): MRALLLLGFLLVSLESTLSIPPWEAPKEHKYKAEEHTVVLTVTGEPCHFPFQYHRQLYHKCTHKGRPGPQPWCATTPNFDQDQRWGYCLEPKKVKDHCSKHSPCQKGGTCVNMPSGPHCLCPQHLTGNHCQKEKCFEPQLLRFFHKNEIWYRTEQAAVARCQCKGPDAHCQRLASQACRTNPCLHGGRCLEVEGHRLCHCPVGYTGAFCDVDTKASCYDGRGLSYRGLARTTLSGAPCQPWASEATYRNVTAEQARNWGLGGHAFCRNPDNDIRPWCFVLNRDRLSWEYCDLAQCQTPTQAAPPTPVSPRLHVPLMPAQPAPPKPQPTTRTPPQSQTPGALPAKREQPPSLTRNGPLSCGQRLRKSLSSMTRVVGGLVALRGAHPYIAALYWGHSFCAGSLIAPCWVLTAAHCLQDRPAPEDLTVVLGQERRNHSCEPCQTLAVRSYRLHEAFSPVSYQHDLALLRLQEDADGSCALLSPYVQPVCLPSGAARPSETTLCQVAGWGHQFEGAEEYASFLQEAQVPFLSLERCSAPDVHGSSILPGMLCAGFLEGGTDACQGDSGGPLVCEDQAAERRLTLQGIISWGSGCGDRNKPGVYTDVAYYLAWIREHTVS

[16] = target: DNA dC->dU-editing enzyme APOBEC-3A (Homo sapiens, UniProt P31941); test: Dose Response confirmation of small molecule APOBEC3A DNA Deaminase Inhibitors via a fluorescence-based single-stranded DNA deaminase assay. [Related pubchem assays (depositor defined):AID493011, AID493024]; type: functional
[17] = target: DNA dC->dU-editing enzyme APOBEC-3G (Homo sapiens, UniProt Q9HC16); type: functional;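 note: Dose-response counterscreen measuring inhibition of APOBEC3G DNA deaminase activity, run while confirming APOBEC3A inhibitors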
[18] = Trypanosoma cruzi growth suppression in host cells – NIH3T3 host cells, beta-gal luminescence, confirmation (AID 2044); type: functional, cell-based;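 note: intracellular parasites grown in NIH/3T3 mouse fibroblasts as host cells; luminescent beta-galactosidase reporter signal from transgenic T. cruzi replicating inside host cells; inhibitors lower the luminescence signal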
[19] = NIH3T3 cell viability loss – ATP luminescence, mouse fibroblasts, counter-screen, dose response (AID 2010); type: functional, cell-based;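 note: cells exposed to compound for about 90 hours before reading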
[20] = target: T5, CAAX prenyl protease 2 (Saccharomyces cerevisiae S288c, UniProt Q03530); type: biochemical
T5 sequence (Q03530 whole entry): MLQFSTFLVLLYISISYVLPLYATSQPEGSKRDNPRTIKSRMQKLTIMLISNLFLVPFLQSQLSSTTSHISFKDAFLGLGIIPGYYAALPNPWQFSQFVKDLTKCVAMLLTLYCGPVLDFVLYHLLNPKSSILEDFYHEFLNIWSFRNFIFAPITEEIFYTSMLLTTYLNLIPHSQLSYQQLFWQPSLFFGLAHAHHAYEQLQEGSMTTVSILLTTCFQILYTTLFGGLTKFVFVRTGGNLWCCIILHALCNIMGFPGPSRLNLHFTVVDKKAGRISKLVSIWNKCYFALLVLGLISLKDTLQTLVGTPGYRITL

[21] = target: Trypsin (Sus scrofa, UniProt P00761); test: trypsin protease activity blockade – biochemical, quenched peptide fluorescence, cherry-pick, selectivity assay for Rce1 protease inhibitor project, dose response (AID 488789)
[22] = target: T4, Coagulation factor XII; test: activated coagulation factor XII inhibitor potency, concentration-effect curve, cell-free (AID 716); type: functional

Cc1cc(Cl)ccc1OCC(=O)Nc1ccccc1NS(=O)(=O)c1cccs1
EC50 [1]: 6.8 µM (active) | IC50 [2]: 4.55 µM (active) | IC50 [3]: 15.8 µM (inactive) | IC50 [4]: > 20 µM (inactive) | EC50 [5]: 5.15 µM (active) | IC50 [6]: 12.3 µM (active) | IC50 [7]: 8.21 µM (active) | IC50 [8]: > 20 µM (inactive) | IC50 [9]: > 20 µM (inactive) | IC50 [10]: > 20 µM (inactive)

CC(=O)OCC[N+](C)(C)C [ACETYLCHOLINE CHLORIDE]
IC50 [11]: 6.26 µM (active) | EC50 [12]: > 71.4 µM (inactive) | EC50 [13]: 0.421 µM (active) | IC50 [14]: 0.566 µM (active)

CC1(C)c2ssc(=S)c2-c2ccccc2N1C(=O)c1ccco1
IC50 [15]: > 50 µM (inactive)

CC(Oc1ccc(Br)cc1)C(=O)Nc1cc(Cl)ccc1N1CCN(C)CC1 (configuration not stated)
IC50 [16]: 3.15 µM (active) | IC50 [17]: 4.26 µM (active)

COc1ccc(C)cc1NC(=O)CCC(=O)Nc1ccc2nc(N3CCN(C)CC3)cc(C)c2c1
EC50 [18]: 0.635 µM (active) | EC50 [19]: 8.73 µM (active) | AC50 [20]: 16.4 µM (active) | AC50 [21]: 19.7 µM (active) | IC50 [22]: > 50 µM (inactive)
